The subject of assay [1] is H275Y mutated (oseltamivir-resistant) influenza A/H1N1pdm09 virus. The note with it: human, in vivo.
Assay [2] deals with oseltamivir and peramivir-resistant influenza A/H1N1pdm09. The settings on record: five cases, treatment with oseltamivir or peramivir; cited from earlier work.
The target of assay [3] is neuraminidase of H275Y mutated influenza A/H1N1pdm09 virus isolates (Influenza A virus (H1N1pdm09), UniProt C3W5S3, H275Y). It counts as biochemical. The settings on record: read-out: 50% inhibitory concentration.

Where “and” joins values, the source holds several entries; their conditions need not be identical. Equal entries are not always repeated.

For the compound `[H]/N=C(\N)N[C@H]1C=C(C(=O)O)O[C@@H]([C@H](OC)[C@H](O)CO)[C@@H]1NC(C)=O` [Laninamivir, laninamivir], the “Time to fever alleviation” value in assay [1] is at most 48 h.
As to `CCOC(=O)C1=C[C@@H](OC(CC)CC)[C@H](NC(C)=O)[C@@H](N)C1` [Oseltamivir, oseltamivir], the “Time until fever subsided from the start of treatment” value in assay [2] is at most 48 h. For the same compound, in assay [1], the Average fever duration is 89 h and 89 ± 47 h; the “Patients with fever alleviated within 48 hours” value was 40%; the “Patients with prolonged fever, which continued for more than 100 hours” value stood at 60%.
`CC(=O)N[C@H]1[C@H]([C@H](O)[C@H](O)CO)OC(C(=O)O)=C[C@@H]1N=C(N)N` [Zanamivir, zanamivir]: in assay [1], the “Time to fever alleviation” value is at most 48 h.
Take peramivir: the “Time until fever subsided from the start of treatment” value in assay [2] was at most 48 h. Besides, in assay [3], the IC50 is 24.7 nM and 22.1 nM and 29.8 nM and 19.1 nM and 18.7 nM and 22.4 nM and 23.3 nM.

The values above are taken from article PMC6837752, “Effectiveness of four types of neuraminidase inhibitors approved in Japan for the treatment of influenza” (PLoS ONE, 2019).
